Measured values: patent US20230263459A1, “DEVICE AND METHOD FOR PREVENTING SUDDEN DEATH AND PROTECTING OXYGEN STATUS DURING SEIZURE ACTIVITY” (priority 2020, published 2023)
“Also recorded” adds a separate entry of the source. Where a name gives a salt, the structure may show the parent alone. Read-outs that look alike come from different tables or passages of the source.

Experiments:
[1] = tested on: audiogenic seizure prone mice; details: cited from earlier work
[2] = tested on: rat model of complete airway occlusion; details: for number of breath attempts during occlusion: FIG. 7D, hydrochloride; for time to respiratory arrest (mean): air control 53.6
Experimental: Adult male Sprague Dawley rats (AGE median=63, mean=88 days; WEIGHT median=306, mean=329 grams; Envigo Chicago, Ill.) were housed in AAALAC-accredited facilities and maintained on a 12 hour light:dark cycle with a temperature of 23° C. and humidity of 55%, monitored daily, and had unrestricted access to water and food. Urethane (1.5 g/kg ip) was used for anesthesia in all animals.
ECG RECORDINGS—Limb-lead ECG was recorded using copper strips coated with conductive gel wrapped around both forelimbs and the base of the tail. Signals were amplified and filtered to pass 1 Hz to 1 kHz (Model 1800 AC amplifier with headstages; A-M Systems, Sequim, Wash.) and digitized at 2 kHz (Microl401 controlled by Spike 2 software; Cambridge Electronic Design, Cambridge, UK). Rhythm was assessed by reviewing P waves and associated QRS complexes for variations in wave shape, beat-to-beat intervals, and atrial-ventricular coupling.
The raw pulsatile waveform of the pulse oximeter was digitized (2 kHz) with other signals.
INSPIRATORY AIRWAY PRESSURES—A pressure transducer (CyQ, Columbus Instruments, Columbus, Ohio) was connected to the sidearm of a T-shaped tracheal tube (see infra). Inspiratory pressures during complete airway occlusion were measured relative to those observed during baseline breathing. Signals were digitized along with other signals recorded at the same time.
TRACHEAL IMPLANTS—A T-shaped tracheal tube was placed through an incision between cartilaginous rings of the trachea after the trachea was exposed in the neck. The distal arm was “sealed” in the trachea with suture around the trachea, compressing it against the outside wall of the implant.
CONTROLLED AIRWAY OCCLUSION—Obstructive apnea was produced with controlled airway occlusion. The exterior arm in the straight path with the implanted arm served breathing or could be occluded. A pressure transducer on the tracheal tube sidearm recorded forces developed during either normal breathing with the tracheal tube open to the atmosphere or during complete closure of the open port.
Injected volumes were 12.5 ml/kg and averaged 4.25 f 1.00 ml/animal (mean, standard deviation). Fluoxetine hydrochloride (cat #1279804) was obtained from Sigma Aldrich Inc. (St. Louis, Mo.).
Gas was delivered at ˜4 liters/min. In all animals, the occlusion was left in place until 10 seconds after the point of respiratory arrest, which was defined as the time of the peak of the last breath attempt.

[3] = tested on: audiogenic seizure-prone mice; details: oxygen, FIG. 3
Excerpt: In audiogenic seizure-prone mice, seizures are stereotyped and consist of a running phase, a clonic phase, and a tonic phase that included hindlimb extension.

[4] = fluoxetine 25 mg/kg IP vs saline

SMILES: CNCCC(Oc1ccc(C(F)(F)F)cc1)c1ccccc1 (centres unmarked) [fluoxetine, Fluoxetine hydrochloride]
- protection against death ([1]; multiple strains of audiogenic seizure prone mice (Faingold 2011, 2014; Zeng 2015)): protect against death
- attempts needed to effect resuscitation after respiratory arrest ([2]; SSRI group vs saline, bolus gas delivery): required more attempts on average
- increase in the time to respiratory arrest ([2]; fluoxetine 25 mg/kg IP one hour post-injection vs saline): 28%
- rate of desaturation during occlusion [2, 4]: did not significantly alter
- inspiratory forces generated during breath attempts while occluded ([2]; fluoxetine 25 mg/kg IP vs saline, FIG. 7B): no apparent differences
- number of breath attempts during occlusion [2, 4]: no difference
- number of breath attempts during occlusion ([2]; fluoxetine 25 mg/kg IP vs saline, listed as Fluoxetine): nearly equivalent
- respiratory rate ([2]; fluoxetine 25 mg/kg IP vs saline, FIGS. 7E, 7F): significantly slowed
- time to respiratory arrest (average) ([2]; fluoxetine 25 mg/kg IP, 60 min before occlusion, n=8, saline control 49.8/49.9): 63.8 s
- minimum oxygen saturation ([2]; fluoxetine 25 mg/kg IP, saline group 37%, not statistically significant): 34%

SMILES: O=O [oxygen]
- time in tonic hindlimb extension phase [3]: unchanged
- time to respiratory arrest [3]: prolonged
- total seizure time [3]: unchanged
- protection from normally fatal audiogenic seizures ([1]; DBA/2 mice, seizures in an oxygen atmosphere (Venit 2004; Willott 1976)): protected
- survival of animals ([1]; oxygen treatment (Venit 2004; Willott 1976)): 100%
- increase in the time to respiratory arrest ([2]; 50% oxygen/50% air 30 seconds prior to occlusion vs air): 19%
- time to respiratory arrest (mean) ([2]; 50% oxygen/50% air for 30 seconds prior to airway occlusion, n=7): 63.9 s
- number of breath attempts ([2]; 50% oxygen/50% air for 30 seconds vs air): significantly increased
- delay in desaturation onset ([2]; animals breathing oxygen versus air, FIG. 1C): ~40 s
- increase in the time to respiratory arrest ([2]; oxygen 30 seconds prior to occlusion vs air): 52%
- increase in the time to respiratory arrest ([2]; oxygen 5 minutes prior to occlusion vs air): 65%
- minimum pulse oximetry level ([2]; oxygen animals, n=12, mean, standard deviation): 37%±11
- time to respiratory arrest (mean) ([2]; oxygen atmosphere for 5 minutes prior to airway occlusion): 88.4 s
- time to respiratory arrest relative to room air ([2]; oxygen enriched atmosphere vs room air, FIG. 1A): nearly doubled; also recorded: nearly twice as long
- total number of breath attempts during complete airway closure ([2]; oxygen prior to occlusion vs air, FIG. 1D): significantly greater
- time to respiratory arrest (mean) ([2]; oxygen stream for only 30 seconds prior to airway occlusion (brief O2), n=10): 81.6 s
- duration of sustained high level of oxygen saturation before decline ([2]; oxygen-breathing rat, pulse oximetry, FIGS. 2A-2B): about 30 seconds
- time of last breath attempt (respiratory arrest) after occlusion onset ([2]; single animal, FIG. 2A, oxygen for five minutes before occlusion, air animal 53): 100 s
- onset of ST segment elevation, bradycardia and premature ventricular contractions post-occlusion ([2]; single animal, FIG. 2A, oxygen for five minutes before occlusion, air animal about 40): about 80 seconds
